SMILES strings stand for the structures.

From patent US12043625B2, “Pyridine derivatives with c-linked cyclic substituents as cGAS inhibitors” (BOEHRINGER INGELHEIM INTERNATIONAL GMBH, priority 2021, dated 2024) come the findings set out here.

In test [1] the test system is IFN induction in cGAMP-stimulated THP1 cells. Description: cGAMP stimulated counter cell assay, THP1-Dual cells, Lucia luciferase reporter (THP1(cGAMP) IC50).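 Further: IRF-driven Lucia luciferase luminescence after 18 h at 37° C, compound series topping at 10 µM with 1% DMSO, unstimulated wells as 0% and DMSO wells as 100%.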 In kind it is cell-based. Conditions: Homo sapiens, THP-1, THP1-Dual cells stimulated with 10 μM cGAMP.
Source text: 6.2 Method: Human cGAS Cell Assay and cGAMP Stimulated Counter Cell Assay (THP1(vir) IC50 and THP1(cGAMP) IC50)
THP1-Dual™ cells (InvivoGen #thpd-nfis) expressing IRF dependent Lucia luciferase reporter were used as basis for both assays.
(§1) For the counter assay, cells were stimulated by cGAMP (SigmaAldrich #SML1232) to activate the identical pathway independent and directly downstream of cGAS (measurement of THP1(cAMP) IC50). Pathway activity was monitored by measuring the Lucia luciferase activity induced by either DNA stimulated cGAS enzyme activity (measurement of THP1^(vir) IC50) or by cGAMP directly (measurement of THP1(cAMP) IC50, counter assay).
Compounds were delivered in 10 mM DMSO solution, serially diluted and transferred to the 384 well assay plate (Greiner #781201) using an Echo acoustic dispenser. Typically, 8 concentrations were used with the highest concentration at 10 μM in the final assay volume followed by ˜1:5 dilution steps. DMSO concentration was set to 1% in the final assay volume. The 384 well assay plate contained 21 test compounds (column 1-22), and DMSO in column 23 and 24.
(§2) 30 μL of the cell/virus-mix were added to each well of the compound plate from column 1-23 via MultiDrop Combi dispenser (5000 cells/well). In column 24, 30 μl/5000 cells/well without virus were added as a low control.
(§3) The plates were then incubated for 18 h at 37° C. in a humidified incubator.
(§4) Following that, 15 μL of QuantiLuc detection reagent (InvivoGen #rep-qlcg5) were added to each well using a MultiDrop Combi. Measurement was done immediately after the addition using an EnVision reader (US-luminescence read-mode).
Data Evaluation and Calculation:
(§5) For data evaluation and calculation, the measurement of the low control was set as 0% control and the measurement of the high control was set as 100% control. The IC50 values were calculated using the standard 4 parameter logistic regression formula. Calculation: [y=(a−d)/(1+(x/c)^b)+d], a=low value, d=high value; x=conc M; c=1C50 M; b=slope
A further test deals with Human cGAS (Homo sapiens (Human), UniProt Q8N884). Kind of test: Human cGAS enzyme assay (hcGAS IC50, in vitro), cGAMP formation by RapidFire MS.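 Further: compounds preincubated 60 min, then GTP and ATP (30 µM each) added for 90 min at room temperature, cGAMP read relative to cyclic-di-GMP internal standard, no-enzyme/DNA wells as 0%.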 In kind it is biochemical. As to conditions: 45 bp dsDNA, GTP/ATP.
Human cGAS, sequence (Q8N884 whole entry): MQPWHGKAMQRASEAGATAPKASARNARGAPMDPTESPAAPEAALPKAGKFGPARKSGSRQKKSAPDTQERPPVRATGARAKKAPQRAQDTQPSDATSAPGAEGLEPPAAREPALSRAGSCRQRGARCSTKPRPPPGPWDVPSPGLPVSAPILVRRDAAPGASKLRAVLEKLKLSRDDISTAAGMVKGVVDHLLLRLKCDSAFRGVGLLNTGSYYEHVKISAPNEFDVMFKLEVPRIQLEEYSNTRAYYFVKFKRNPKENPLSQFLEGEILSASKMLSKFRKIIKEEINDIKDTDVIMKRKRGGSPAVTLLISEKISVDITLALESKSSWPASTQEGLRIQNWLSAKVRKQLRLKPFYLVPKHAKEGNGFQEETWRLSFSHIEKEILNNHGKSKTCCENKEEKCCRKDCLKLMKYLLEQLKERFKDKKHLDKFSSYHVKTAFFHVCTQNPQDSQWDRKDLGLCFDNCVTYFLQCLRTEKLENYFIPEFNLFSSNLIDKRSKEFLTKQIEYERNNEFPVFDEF
In test [2] the test system is IFN induction in virus-stimulated THP1 cells. Kind of test: Human cGAS cell assay, baculovirus-stimulated THP1-Dual cells, Lucia luciferase reporter (THP1(vir) IC50).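 On all read-outs here: IRF-dependent luminescence, 8 concentrations up to 10 µM in 1% DMSO, 0% = unstimulated cells, 100% = DMSO plus virus, counter assay stimulated with cGAMP downstream of cGAS.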 In kind it is cell-based. As to conditions: for IC50: Homo sapiens, THP-1, baculovirus-stimulated THP1-Dual cells, 18 h; for Ratio THP(cGAMP) IC50/THP(vir) IC50: selectivity for cGAS inhibition.
Source text: THP1-Dual™ cells (InvivoGen #thpd-nfis) expressing IRF dependent Lucia luciferase reporter were used as basis for both assays. For the detection of cellular cGAS activity cells were stimulated by a baculovirus (pFastbac-1, Invitrogen, no coding insert) infection that delivers the cGAS enzyme stimulating double-stranded DNA (measurement of THP1(vir) IC50).
as §1
Typically, 8 concentrations were used with the highest concentration at 10 μM in the final assay volume followed by ˜1:5 dilution steps. DMSO concentration was set to 1% in the final assay volume. The 384 well assay plate contained 21 test compounds (column 1-22), and DMSO in column 23 and 24.
The baculovirus solution was then added 1:200 (may have varied according to virus batch) to the cells (measurement of THP1(vir) IC50).
as §2, §3, §4
Data Evaluation and Calculation:
as §5
For test [3], the system named is IFN induction in dsDNA-stimulated human whole blood. Kind of test: Human whole blood assay, dsDNA transfection, IFNα2a production (hWB IC50).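 Further: cGAS pathway activity, IFNα2a in plasma by MSD immunoassay after 22 h at 37 °C, 8 concentrations up to 10 µM in 0.1% DMSO, DMSO controls.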 In kind it is cell-based.

For the compound `CC1(C)C[C@](F)(c2cc(Cl)cnc2O[C@H]2C[C@@H](C(=O)O)N(c3nc(C(F)(F)F)nc4c3oc3ccccc34)C2)CCS1(=O)=O` [Example 2.09], the IC50 in test [1] came to 5.49 µM; against Human cGAS it was 0.011 µM; in test [2] it was 0.168 µM; in test [3], 0.09 µM. Also, the “Ratio THP(cGAMP) IC50/THP(vir) IC50” value in test [2] stood at 33.

Turning to `C[C@H]1COCC[C@]1(F)c1cc(-c2cnn(C(F)F)c2)cnc1O[C@H]1C[C@@H](C(=O)O)N(c2nc(C(F)F)nc3c2oc2ccccc23)C1` [Example 6.01, (2S,4S)-4-({5-[1-(Difluoromethyl)-1H-pyrazol-4-yl]-3-[(3S,4R)-4-fluoro-3-methyloxan-4-yl]pyridin-2-yl}oxy)-1-[4-(difluoromethyl)-8-oxa-3,5-diazatricyclo[7.4.0.0^2,7]trideca-1(9),2(7),3,5,10,12-hexaen-6-yl]pyrrolidine-2-carboxylic acid], the IC50 in test [1] is greater than 9.99 µM; on Human cGAS, 0.005 µM; in test [2] it was 0.035 µM; in test [3] it was 0.082 µM. For the same compound, in test [2], the “Ratio THP(cGAMP) IC50/THP(vir) IC50” value is greater than 289.

On to `C#Cc1cnc(O[C@H]2C[C@@H](C(=O)O)N(c3nc(C(F)(F)F)nc4c3oc3ccccc34)C2)c([C@@]2(F)CC(C)(C)S(=O)(=O)C[C@@H]2C)c1` [Example 1.08], for which the IC50 was 13.9 µM in test [1], 0.004 µM at Human cGAS, 0.004 µM in test [2] and 0.016 µM in test [3]. The “Ratio THP(cGAMP) IC50/THP(vir) IC50” value in test [2] is 3275.

On to `CNc1cccc(-c2cnc(O[C@H]3C[C@@H](C(=O)O)N(c4nc(C(F)F)nc5c4oc4ccccc45)C3)c([C@@]3(F)CCOC[C@@H]3C)c2)c1` [Example 6.03], for which the IC50 was determined as 9.51 µM in test [1], 0.01 µM on Human cGAS, 0.035 µM in test [2] and 0.038 µM in test [3]. Besides, the “Ratio THP(cGAMP) IC50/THP(vir) IC50” value in test [2] was 276.

Turning to `C[C@H]1CS(=O)(=O)CC[C@]1(F)c1cc(Cl)cnc1O[C@H]1C[C@@H](C(=O)O)N(c2nc(C(F)F)nc3c2oc2ccccc23)C1` [Example 1.13], the IC50 in test [1] is 22.5 µM; against Human cGAS it was 0.002 µM; in test [2], 0.006 µM; in test [3], 0.006 µM.

For the compound `C#Cc1cnc(O[C@H]2C[C@@H](C(=O)O)N(c3nc(C(F)(F)F)nc4c3oc3ccccc34)C2)c(C23CCOCC2C3)c1` (stereo partly drawn) [Example 4.01, (2S,4S)-4-[(5-ethynyl-3-{3-oxabicyclo[4.1.0]heptan-6-yl}pyridin-2-yl)oxy]-1-[4-(trifluoromethyl)-8-oxa-3,5-diazatricyclo[7.4.0.0^2,7]trideca-1(13),2,4,6,9,11-hexaen-6-yl]pyrrolidine-2-carboxylic acid], the IC50 was greater than 16.6 µM in test [1], 0.008 µM against Human cGAS, 0.784 µM in test [2] and 1.5 µM in test [3]. For the same compound, the “Ratio THP(cGAMP) IC50/THP(vir) IC50” value in test [2] was greater than 21.

In the case of `O=C(O)[C@@H]1C[C@H](Oc2ncc(Br)cc2C2(F)CCS(=O)(=O)CC2)CN1c1nc(C(F)F)nc2c1oc1ccccc12` [Example 2.04], the IC50 in test [1] is greater than 16.6 µM; at Human cGAS, 0.005 µM; in test [2], 0.638 µM; in test [3] it was 0.115 µM. For the same compound, the “Ratio THP(cGAMP) IC50/THP(vir) IC50” value in test [2] is on record as greater than 26.

Turning to `C#Cc1cnc(O[C@H]2C[C@@H](C(=O)O)N(c3nc(C(F)F)nc4c3oc3ccccc34)C2)c([C@]2(F)CCOC[C@@H]2C)c1` [Example 1.03], the IC50 was greater than 16.6 µM in test [1], 0.002 µM against Human cGAS, 0.283 µM in test [2] and 0.137 µM in test [3]. In addition, the “Ratio THP(cGAMP) IC50/THP(vir) IC50” value in test [2] was greater than 59.

Turning to `C#Cc1cnc(O[C@H]2C[C@@H](C(=O)O)N(c3nc(C(F)(F)F)nc4c3oc3ccccc34)C2)c([C@@]2(F)CCS(=O)(=O)C[C@@H]2C)c1` [Example 2.12], the IC50 in test [1] came out at 21.8 µM; against Human cGAS it was 0.003 µM; in test [2], 0.008 µM; in test [3], 0.008 µM. Moreover, the “Ratio THP(cGAMP) IC50/THP(vir) IC50” value in test [2] stood at 2619.
